Measurements: patent publication US20140170208A1, “TRANSDERMAL PATCH FORMULATION” (LABTEC GMBH, priority 2009, published 2014)
Where two headings read alike, the source gives them in different places.

Experiments:
[1] = Procedure: 1.5 Further Solubility Experiments Using IPM and “Silicone Oil 1000”
1.7 Concentrating of Rasagiline in IPM
2.2 Solubility of Rasagiline in Polidocanol
Experiment 3.8: Rasagiline Solubility in a Plastoid Bneutral Oil Solution
• 50 mg rasagiline WE 8596 in 300 mg Plastoid B-solution from exp.

[2] = remark: listed apart in the source
Procedure: Rasagiline base (50 mg) was dissolved in the presented solvents (0.14 g) and the placed into an over at 70° C. to monitor its loss.

[3] = remark: listed apart in the source
Description: Pilot Test Regarding the Solubility of Rasagiline Base in Non-Volatile Solvents for Use in a TDS
1.1 Solubility of Rasagiline Base

[4] = ca. 20-25 mg in 0.5 g or mL, ca. 1:20 mixture
[5] = ca. 20-25 mg in 1.0 g or mL, ca. 1:40 mixture

## C#CCN[C@@H]1CCc2ccccc21 [rasagiline base, rasagiline]
[1]
  Rasagiline solubility in a Plastoid B neutral oil solution: dissolved
  Solubility in silicone oil 1000: 25-30 mg/g silicone oil 1000
  Solubility of rasagiline in polidocanol: completely soluble
[2]; 50 mg in 0.14 g pure water, oven at 70° C.
  Loss of rasagiline substance after removal of solvent by drying (FIG. 3): significant sublimation
[2]; melted in beaker glass at 60-70° C., covered with ice-cold watch glass
  Sublimation of rasagiline base at 60-70° C.: re-sublimates
[3]; [4]
  Solubility of rasagiline base in Cremophor EL: Nearly completely
  Solubility of rasagiline base in Glycerol anhydrous: Not Solubilised
  Solubility of rasagiline base in Isopropyl myristate (IPM): Solubilised
  Solubility of rasagiline base in PEG 400: Solubilised
  Solubility of rasagiline base in Polysorbat 80: Solubilised
  Solubility of rasagiline base in Propylenglycol: Solubilised
  Solubility of rasagiline base in Silicone oil 1000: Not Solubilised
  Solubility of rasagiline base in Vitamin-E-acetate: Nearly completely
  Solubility of rasagiline base in paraffine, viscous: Not Solubilised
[3]; [5]
  Solubility of rasagiline base in Cremophor EL: Solubilised
  Solubility of rasagiline base in Glycerol anhydrous: Not completely solubilised,
  Solubility of rasagiline base in Isopropyl myristate (IPM): Solubilised
  Solubility of rasagiline base in PEG 400: Solubilised
  Solubility of rasagiline base in Polysorbat 80: Solubilised
  Solubility of rasagiline base in Propylenglycol: Solubilised
  Solubility of rasagiline base in Silicone oil 1000: Solubilised
  Solubility of rasagiline base in Vitamin-E-acetate: Solubilised
  Solubility of rasagiline base in paraffine, viscous: Solubilised
